Measured values reported in the NIST ThermoML archive (doi:10.1021/je800110r).
“And” between values parts separate entries of the source, which are not always exact repeats. Identical values can stand only once.

Conditions: 323.15 K, Liquid, Vibrating tube method

CCCCCCCCCC [decane]
Conditions	mass density
979 kPa	707.8 kg/m3
1136 kPa	707.9 kg/m3
1175 kPa	707.9 kg/m3
2516 kPa	709.2 kg/m3
2603 kPa	709.2 kg/m3
2658 kPa	709.3 kg/m3
2678 kPa	709.4 kg/m3
2691 kPa	709.3 kg/m3
2692 kPa	709.2 kg/m3 and 709.4 kg/m3
2703 kPa	709.4 kg/m3
2822 kPa	709.4 kg/m3
2861 kPa	709.4 kg/m3
2878 kPa	709.5 kg/m3
2894 kPa	709.6 kg/m3
2913 kPa	709.5 kg/m3
2936 kPa	709.5 kg/m3
2951 kPa	709.6 kg/m3
2967 kPa	709.5 kg/m3
2987 kPa	709.6 kg/m3
3000 kPa	709.7 kg/m3
3022 kPa	709.6 kg/m3
3044 kPa	709.5 kg/m3
3064 kPa	709.6 kg/m3
3081 kPa	709.7 kg/m3
4273 kPa	710.8 kg/m3
4294 kPa	710.8 kg/m3
4322 kPa	710.8 kg/m3
4342 kPa	710.9 kg/m3
4361 kPa	710.8 kg/m3
4382 kPa	710.8 kg/m3
4423 kPa	710.9 kg/m3
4487 kPa	711 kg/m3
4606 kPa	711 kg/m3
4625 kPa	711.1 kg/m3
4647 kPa	711.1 kg/m3
4668 kPa	711.2 kg/m3
4685 kPa	711.2 kg/m3
4861 kPa	711.3 kg/m3
4889 kPa	711.4 kg/m3
4922 kPa	711.3 kg/m3
5651 kPa	712 kg/m3
5805 kPa	712.2 kg/m3
5822 kPa	712.1 kg/m3
5843 kPa	712.2 kg/m3
5857 kPa	712.3 kg/m3
5874 kPa	712.2 kg/m3
5887 kPa	712.2 kg/m3
6263 kPa	712.6 kg/m3
6285 kPa	712.6 kg/m3
6300 kPa	712.6 kg/m3
6321 kPa	712.5 kg/m3
6341 kPa	712.7 kg/m3
6363 kPa	712.7 kg/m3
6380 kPa	712.6 kg/m3
6398 kPa	712.7 kg/m3
6436 kPa	712.7 kg/m3
6474 kPa	712.7 kg/m3
6492 kPa	712.8 kg/m3
6514 kPa	712.7 kg/m3
6635 kPa	712.8 kg/m3
6654 kPa	712.9 kg/m3
6678 kPa	712.9 kg/m3
6703 kPa	713 kg/m3
6916 kPa	713 kg/m3
6934 kPa	713.1 kg/m3
6961 kPa	713.2 kg/m3
6979 kPa	713.1 kg/m3
7007 kPa	713.1 kg/m3
7029 kPa	713.3 kg/m3
7057 kPa	713.3 kg/m3
7082 kPa	713.3 kg/m3
7102 kPa	713.2 kg/m3
7118 kPa	713.3 kg/m3
7137 kPa	713.4 kg/m3
7158 kPa	713.4 kg/m3
7174 kPa	713.4 kg/m3
7190 kPa	713.4 kg/m3
7203 kPa	713.3 kg/m3
7224 kPa	713.3 kg/m3
7238 kPa	713.4 kg/m3
7254 kPa	713.5 kg/m3
7271 kPa	713.5 kg/m3
7304 kPa	713.4 kg/m3
7318 kPa	713.5 kg/m3
7339 kPa	713.4 kg/m3
7354 kPa	713.4 kg/m3
7368 kPa	713.5 kg/m3
8395 kPa	714.3 kg/m3
8425 kPa	714.4 kg/m3
8563 kPa	714.5 kg/m3
8605 kPa	714.6 kg/m3
9325 kPa	715.2 kg/m3
9451 kPa	715.3 kg/m3
10321 kPa	715.9 kg/m3
10344 kPa	716 kg/m3
10548 kPa	716.3 kg/m3
11286 kPa	716.8 kg/m3
11307 kPa	716.8 kg/m3
11331 kPa	716.8 kg/m3
11359 kPa	716.8 kg/m3
11377 kPa	716.9 kg/m3
11401 kPa	717 kg/m3
11467 kPa	717 kg/m3
12096 kPa	717.5 kg/m3
12122 kPa	717.5 kg/m3
12147 kPa	717.6 kg/m3
12173 kPa	717.6 kg/m3
12190 kPa	717.7 kg/m3
12213 kPa	717.5 kg/m3
12230 kPa	717.6 kg/m3
12257 kPa	717.6 kg/m3
12397 kPa	717.7 kg/m3
12417 kPa	717.7 kg/m3
12435 kPa	717.8 kg/m3
12457 kPa	717.8 kg/m3
12472 kPa	717.8 kg/m3
12495 kPa	717.8 kg/m3
12510 kPa	717.9 kg/m3
12528 kPa	717.8 kg/m3
12854 kPa	718.2 kg/m3
12869 kPa	718.2 kg/m3
12887 kPa	718.1 kg/m3
12906 kPa	718.2 kg/m3
12919 kPa	718.1 kg/m3
12964 kPa	718.2 kg/m3
12977 kPa	718.3 kg/m3
12991 kPa	718.2 kg/m3
13012 kPa	718.2 kg/m3
13060 kPa	718.2 kg/m3
13843 kPa	718.9 kg/m3
13863 kPa	718.9 kg/m3
13877 kPa	718.9 kg/m3
13892 kPa	719 kg/m3
13909 kPa	719 kg/m3
13924 kPa	719 kg/m3
13946 kPa	719 kg/m3
13966 kPa	719 kg/m3
13981 kPa	719.1 kg/m3
14001 kPa	719 kg/m3
14021 kPa	719 kg/m3
14043 kPa	719 kg/m3
14066 kPa	719.2 kg/m3
14084 kPa	719.2 kg/m3
14099 kPa	719.1 kg/m3
14124 kPa	719.2 kg/m3
14140 kPa	719.3 kg/m3
14160 kPa	719.2 kg/m3
14173 kPa	719.2 kg/m3
14274 kPa	719.2 kg/m3
14317 kPa	719.3 kg/m3
14348 kPa	719.5 kg/m3
14364 kPa	719.3 kg/m3
14385 kPa	719.4 kg/m3
14404 kPa	719.4 kg/m3
14424 kPa	719.4 kg/m3
14622 kPa	719.6 kg/m3
14631 kPa	719.5 kg/m3
14647 kPa	719.5 kg/m3
14657 kPa	719.7 kg/m3
14679 kPa	719.6 kg/m3
14688 kPa	719.6 kg/m3
14701 kPa	719.6 kg/m3
14711 kPa	719.7 kg/m3
14725 kPa	719.7 kg/m3
14741 kPa	719.6 kg/m3
14753 kPa	719.7 kg/m3
15015 kPa	719.9 kg/m3
15023 kPa	719.9 kg/m3
15033 kPa	719.8 kg/m3
15047 kPa	720 kg/m3
15058 kPa	719.9 kg/m3
15068 kPa	719.9 kg/m3
15085 kPa	720 kg/m3
15095 kPa	719.9 kg/m3
15112 kPa	720 kg/m3
15120 kPa	719.9 kg/m3
15130 kPa	719.9 kg/m3
15143 kPa	720.1 kg/m3
15159 kPa	720 kg/m3
15170 kPa	720 kg/m3
15184 kPa	720 kg/m3
15196 kPa	720.1 kg/m3
15211 kPa	720 kg/m3
15222 kPa	720 kg/m3
15237 kPa	720 kg/m3
15249 kPa	720 kg/m3
15266 kPa	720.1 kg/m3
15275 kPa	720.1 kg/m3
15286 kPa	720 kg/m3
15303 kPa	720.2 kg/m3
15312 kPa	720.1 kg/m3
15326 kPa	720.1 kg/m3
15340 kPa	720.2 kg/m3
15388 kPa	720.2 kg/m3
15397 kPa	720.2 kg/m3
15411 kPa	720.2 kg/m3
15423 kPa	720.2 kg/m3
15686 kPa	720.4 kg/m3
15697 kPa	720.5 kg/m3
15712 kPa	720.4 kg/m3
15721 kPa	720.5 kg/m3
16291 kPa	721 kg/m3
16333 kPa	721 kg/m3
16345 kPa	721.1 kg/m3
16357 kPa	720.9 kg/m3
16371 kPa	721.1 kg/m3
16383 kPa	720.9 kg/m3
16398 kPa	721.1 kg/m3
16410 kPa	720.9 kg/m3
16426 kPa	721.1 kg/m3
16436 kPa	721.1 kg/m3
16448 kPa	721.1 kg/m3
16460 kPa	721.2 kg/m3
16473 kPa	721 kg/m3
16595 kPa	721.1 kg/m3
16627 kPa	721.2 kg/m3
16637 kPa	721.2 kg/m3
16673 kPa	721.2 kg/m3
16691 kPa	721.2 kg/m3
16708 kPa	721.1 kg/m3
16721 kPa	721.3 kg/m3
16735 kPa	721.2 kg/m3
16752 kPa	721.2 kg/m3
16764 kPa	721.2 kg/m3
16784 kPa	721.3 kg/m3
16797 kPa	721.3 kg/m3
16817 kPa	721.4 kg/m3
16829 kPa	721.3 kg/m3
16849 kPa	721.4 kg/m3
16864 kPa	721.5 kg/m3
16876 kPa	721.4 kg/m3
16889 kPa	721.3 kg/m3
16910 kPa	721.3 kg/m3
16921 kPa	721.4 kg/m3
16934 kPa	721.4 kg/m3
16951 kPa	721.4 kg/m3
16964 kPa	721.4 kg/m3
16980 kPa	721.5 kg/m3
16995 kPa	721.4 kg/m3
17043 kPa	721.5 kg/m3
17058 kPa	721.4 kg/m3
17077 kPa	721.6 kg/m3
17095 kPa	721.5 kg/m3
17112 kPa	721.4 kg/m3
17130 kPa	721.6 kg/m3
17141 kPa	721.5 kg/m3
17157 kPa	721.6 kg/m3
17172 kPa	721.4 kg/m3
17190 kPa	721.6 kg/m3
17203 kPa	721.6 kg/m3
17223 kPa	721.6 kg/m3
17241 kPa	721.6 kg/m3
17254 kPa	721.7 kg/m3
17628 kPa	722 kg/m3
18716 kPa	722.8 kg/m3
18779 kPa	722.8 kg/m3
18862 kPa	722.9 kg/m3
18883 kPa	722.8 kg/m3
19079 kPa	723 kg/m3
19095 kPa	723.2 kg/m3
19120 kPa	723 kg/m3
19140 kPa	723.1 kg/m3
19159 kPa	723.1 kg/m3
19176 kPa	723.2 kg/m3
19198 kPa	723.2 kg/m3
19220 kPa	723.2 kg/m3
19240 kPa	723.2 kg/m3
19286 kPa	723.3 kg/m3
19330 kPa	723.3 kg/m3
19527 kPa	723.5 kg/m3
19547 kPa	723.4 kg/m3
19614 kPa	723.5 kg/m3
19699 kPa	723.6 kg/m3
